Reference: ChEMBL document CHEMBL3885861, “Open TG-GATES”

Organism: Rattus norvegicus
Test: Open TG-GATES - Regimen: Single
Type: toxicity, organism-based, Sprague-Dawley
Set-up: regimen Single, gender Male, age 6 weeks
Conditions: in vivo, po, 200 mg/kg, route gavage, dose level High; for APTT / Bas / Eos / Fbg / Hb / Ht / Lym / MCH / MCHC / MCV / Mono / Neu / PT / Plat / RBC / Ret / WBC: tissue Blood; for KIDNEY_L / KIDNEY_R / KIDNEY_TOTAL: tissue Kidney; for LIVER: tissue Liver; for A/G / ALP / ALT / AST / BUN / CRE / Ca / Cl / DBIL / GLC / IP / K / LDH / Na / PL / RALB / TBIL / TC / TG / TP / gamma-GTP: tissue Plasma

`CCc1oc2ccccc2c1C(=O)c1cc(Br)c(O)c(Br)c1` [BENZBROMARONE] was tested, and the TERMINAL_BW (3 h) was 215.1 g, the APTT (3 h) was 17.8 s and the Bas (3 h) was 0%. It also gave an Eos (3 h) of 1%, a Fbg (3 h) of 227 mg/dL and a Hb (3 h) of 13.3 g/dL. It also gave a Ht (3 h) of 39.8%, a Lym (3 h) of 76.4% and an MCH (3 h) of 22.2 pg. It also gave an MCHC (3 h) of 33.3%, an MCV (3 h) of 66.5 fL and a Mono (3 h) of 4.4%. It also gave a Neu (3 h) of 18.4%, a PT (3 h) of 12.3 s and a Plat (3 h) of 98.6 x10_4/uL. The RBC (3 h) was 600 x10_4/ul, the Ret (3 h) was 7.7% and the WBC (3 h) was 85.4 x10_2/uL. For the same compound, the KIDNEY_L (3 h) was 1 g, the KIDNEY_R (3 h) was 0.9 g and the KIDNEY_TOTAL (3 h) was 1.9 g. It also gave an LIVER (3 h) of 9.9 g, an A/G (3 h) of 1.9 and an ALP (3 h) of 814 IU/L. It also gave an ALT (3 h) of 37.2 IU/L, an AST (3 h) of 70 IU/L and a BUN (3 h) of 17.2 mg/dL. For the same compound, the CRE (3 h) was 0.8 mg/dL, the Ca (3 h) was 9.9 mg/dL and the Cl (3 h) was 103.4 meq/L. For the same compound, the DBIL (3 h) was 0.096 mg/dL, the GLC (3 h) was 252.6 mg/dL and the IP (3 h) was 10 mg/dL. For the same compound, the K (3 h) was 5.3 meq/L, the LDH (3 h) was 137.2 IU/L and the Na (3 h) was 138.4 meq/L. It also gave a PL (3 h) of 136.8 mg/dL, an RALB (3 h) of 3.6 g/dL and a TBIL (3 h) of 0.4 mg/dL. For the same compound, the TC (3 h) was 75.6 mg/dL, the TG (3 h) was 69.6 mg/dL and the TP (3 h) was 5.5 g/dL. For the same compound, the gamma-GTP (3 h) was 1 IU/L, the TERMINAL_BW (6 h) was 213.5 g and the APTT (6 h) was 16.3 s. For the same compound, the Bas (6 h) was 0%, the Eos (6 h) was 0.8% and the Fbg (6 h) was 239.2 mg/dL. It also gave a Hb (6 h) of 13.2 g/dL, a Ht (6 h) of 39.6% and a Lym (6 h) of 80.2%. It also gave an MCH (6 h) of 21.6 pg, an MCHC (6 h) of 33.3% and an MCV (6 h) of 64.8 fL. For the same compound, the Mono (6 h) was 5.4%, the Neu (6 h) was 13.6% and the PT (6 h) was 12.2 s. It also gave a Plat (6 h) of 97.5 x10_4/uL, an RBC (6 h) of 612 x10_4/ul and a Ret (6 h) of 7.9%. The WBC (6 h) was 66.9 x10_2/uL, the KIDNEY_L (6 h) was 1 g and the KIDNEY_R (6 h) was 1 g. The KIDNEY_TOTAL (6 h) was 2 g, the LIVER (6 h) was 9.5 g and the A/G (6 h) was 2. It also gave an ALP (6 h) of 776.8 IU/L, an ALT (6 h) of 34 IU/L and an AST (6 h) of 59 IU/L. It also gave a BUN (6 h) of 14.2 mg/dL, a CRE (6 h) of 0.7 mg/dL and a Ca (6 h) of 10.5 mg/dL. It also gave a Cl (6 h) of 101.4 meq/L, a DBIL (6 h) of 0.024 mg/dL and a GLC (6 h) of 212.4 mg/dL. The IP (6 h) was 10.3 mg/dL, the K (6 h) was 4.8 meq/L and the LDH (6 h) was 137.4 IU/L. For the same compound, the Na (6 h) was 139.2 meq/L, the PL (6 h) was 137 mg/dL and the RALB (6 h) was 3.8 g/dL. The TBIL (6 h) was 0.4 mg/dL, the TC (6 h) was 78.4 mg/dL and the TG (6 h) was 56.6 mg/dL. For the same compound, the TP (6 h) was 5.7 g/dL, the gamma-GTP (6 h) was 1.4 IU/L and the TERMINAL_BW (9 h) was 213.1 g. For the same compound, the APTT (9 h) was 17 s, the Bas (9 h) was 0% and the Eos (9 h) was 0%. The Fbg (9 h) was 240 mg/dL, the Hb (9 h) was 13.2 g/dL and the Ht (9 h) was 39.4%. It also gave a Lym (9 h) of 79.2%, an MCH (9 h) of 22.2 pg and an MCHC (9 h) of 33.6%. It also gave an MCV (9 h) of 66 fL, a Mono (9 h) of 2.8% and a Neu (9 h) of 17.8%. The PT (9 h) was 12.2 s, the Plat (9 h) was 104 x10_4/uL and the RBC (9 h) was 596.4 x10_4/ul. It also gave a Ret (9 h) of 8.2%, a WBC (9 h) of 96.1 x10_2/uL and a KIDNEY_L (9 h) of 1 g. The KIDNEY_R (9 h) was 1 g, the KIDNEY_TOTAL (9 h) was 2 g and the LIVER (9 h) was 9.2 g. It also gave an A/G (9 h) of 2.1, an ALP (9 h) of 868 IU/L and an ALT (9 h) of 34.4 IU/L. It also gave an AST (9 h) of 60.8 IU/L, a BUN (9 h) of 16.6 mg/dL and a CRE (9 h) of 0.7 mg/dL. For the same compound, the Ca (9 h) was 10.4 mg/dL, the Cl (9 h) was 103.4 meq/L and the DBIL (9 h) was 0.04 mg/dL. It also gave a GLC (9 h) of 207.8 mg/dL, an IP (9 h) of 10.7 mg/dL and a K (9 h) of 4.9 meq/L. The LDH (9 h) was 178.8 IU/L, the Na (9 h) was 138.6 meq/L and the PL (9 h) was 143.8 mg/dL. For the same compound, the RALB (9 h) was 3.9 g/dL, the TBIL (9 h) was 0.3 mg/dL and the TC (9 h) was 81.2 mg/dL. It also gave a TG (9 h) of 65.6 mg/dL, a TP (9 h) of 5.9 g/dL and a gamma-GTP (9 h) of 1.4 IU/L. The TERMINAL_BW (24 h) was 217.2 g, the APTT (24 h) was 15.8 s and the Bas (24 h) was 0%. It also gave an Eos (24 h) of 0.6%, a Fbg (24 h) of 219.2 mg/dL and a Hb (24 h) of 13.9 g/dL. The Ht (24 h) was 41.2%, the Lym (24 h) was 83.6% and the MCH (24 h) was 22.2 pg. It also gave an MCHC (24 h) of 33.6%, an MCV (24 h) of 65.9 fL and a Mono (24 h) of 4.6%. The Neu (24 h) was 11.4%, the PT (24 h) was 12.4 s and the Plat (24 h) was 107.4 x10_4/uL. It also gave an RBC (24 h) of 627.2 x10_4/ul, a Ret (24 h) of 7.6% and a WBC (24 h) of 117.5 x10_2/uL. It also gave a KIDNEY_L (24 h) of 1 g, a KIDNEY_R (24 h) of 1 g and a KIDNEY_TOTAL (24 h) of 2 g. The LIVER (24 h) was 11.3 g, the A/G (24 h) was 2.1 and the ALP (24 h) was 1012.6 IU/L. It also gave an ALT (24 h) of 35 IU/L, an AST (24 h) of 61 IU/L and a BUN (24 h) of 16.8 mg/dL. The CRE (24 h) was 0.7 mg/dL, the Ca (24 h) was 10.2 mg/dL and the Cl (24 h) was 103.6 meq/L. The DBIL (24 h) was 0.018 mg/dL, the GLC (24 h) was 182 mg/dL and the IP (24 h) was 7.9 mg/dL. The K (24 h) was 4.9 meq/L, the LDH (24 h) was 186.2 IU/L and the Na (24 h) was 139.6 meq/L. It also gave a PL (24 h) of 119.6 mg/dL, an RALB (24 h) of 3.9 g/dL and a TBIL (24 h) of 0.3 mg/dL. It also gave a TC (24 h) of 70.8 mg/dL, a TG (24 h) of 74.8 mg/dL and a TP (24 h) of 5.9 g/dL. For the same compound, the gamma-GTP (24 h) was 1.6 IU/L.
